Assay results from US20250136596A1, “MEMBRANE-ASSOCIATED TYROSINE- AND THREONINE-SPECIFIC CDC2-INHIBITORY KINASE (PKMYT1) INHIBITORS AND USES THEREOF” (Insilico Medicine IP Limited, priority 2022, published 2025).

Target: PKMYT1 (Homo sapiens (Human), UniProt Q99640)
Assay: PKMYT1 HTRF Assay
Type: binding
Settings: Tracer 178, GST-Tb; compound 10 μM to 0.5 nM; read-out: MYT1 HTRF IC50
Procedure: Example A: PKMYT1 HTRF Assay
Compound serial dilution is performed by Echo, and the final concentrations vary from 10 μM to 0.5 nM. This was filled by the addition of 5 μL/well of Enzyme solution to the assay plate containing the compound. The plate was centrifuged at 1000 rpm for 1 minute, and incubate 15 minutes at 25 ? . Then 5 μL/well of tracer solution (Tracer 178) was added to initiate the reaction, and incubate for 60 minutes at 25° C. Next 5 μL GST-Tb was added into the assay plate, the plate was centrifuged at 1000 rpm for 1 minute, and incubate for 15 minutes at 25 ? . The assay plate was read on Envision.

Sequence of PKMYT1 (Q99640 whole entry): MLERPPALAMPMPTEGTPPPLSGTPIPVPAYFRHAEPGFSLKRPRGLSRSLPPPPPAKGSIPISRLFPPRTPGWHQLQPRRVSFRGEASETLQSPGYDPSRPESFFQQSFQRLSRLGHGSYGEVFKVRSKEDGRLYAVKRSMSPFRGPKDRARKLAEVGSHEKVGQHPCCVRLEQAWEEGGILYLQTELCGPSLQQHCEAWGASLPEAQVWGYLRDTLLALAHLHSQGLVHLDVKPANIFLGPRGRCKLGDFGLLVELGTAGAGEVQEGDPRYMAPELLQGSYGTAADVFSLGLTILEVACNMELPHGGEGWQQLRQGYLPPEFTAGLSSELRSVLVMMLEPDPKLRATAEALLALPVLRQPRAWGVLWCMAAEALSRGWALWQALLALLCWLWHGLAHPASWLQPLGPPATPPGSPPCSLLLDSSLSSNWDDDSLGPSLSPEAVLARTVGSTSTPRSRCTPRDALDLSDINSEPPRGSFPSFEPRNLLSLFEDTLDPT

Row | Structure (SMILES) | IC50 [µM]
1 | Cc1ccc(O)c(C)c1-c1cnc2[nH]c(-c3cnc(N4CC5CC4CO5)nc3)cc2c1C#N [Example 42, (R)-2-(2-((1S,4S)-2-oxa-5-azabicyclo[2.2.1]heptan-5-yl)pyrimidin-5-yl)-5-(3-hydroxy-2,6-dimethylphenyl)-1H-pyrrolo[2,3-b]pyridine-4-carbonitrile] | < 0.01
2 | Cc1ccc(O)c(C)c1-c1cnc2[nH]c(-c3cnc(N)nn3)cc2c1C#N [Example 127, (S)-2-(3-amino-1,2,4-triazin-6-yl)-5-(3-hydroxy-2,6-dimethylphenyl)-1H-pyrrolo[2,3-b]pyridine-4-carbonitrile] | < 0.01
3 | Cc1ccc(O)c(C)c1-c1cnc2[nH]c(-c3cnc(NC4CC(O)C4)nc3)cc2c1C#N [Example 102, (R)-5-(3-hydroxy-2,6-dimethylphenyl)-2-(2-((3-hydroxycyclobutyl)amino)pyrimidin-5-yl)-1H-pyrrolo[2,3-b]pyridine-4-carbonitrile] | < 0.01
4 | Cc1ncc(-c2cc3c(C#N)c(-c4c(C)ccc(O)c4C)cnc3[nH]2)c(C)n1 (atropisomer, axis not shown) [Example 77, (R)-2-(2,4-dimethylpyrimidin-5-yl)-5-(3-hydroxy-2,6-dimethylphenyl)-1H-pyrrolo[2,3-b]pyridine-4-carbonitrile] | 0.01 to 0.05
5 | Cc1ccc(O)c(C)c1-c1cnc2[nH]c(-c3cnc(N4C[C@@H]5C[C@H]4CO5)nc3)cc2n1 [Example 128, 3-(6-(2-((1S,4S)-2-oxa-5-azabicyclo[2.2.1]heptan-5-yl)pyrimidin-5-yl)-5H-pyrrolo[2,3-b]pyrazin-2-yl)-2,4-dimethylphenol] | < 0.01
6 | Cc1ccc(O)c(C)c1-c1cnc2[nH]c(-c3cnc(N)nc3)c(C#CC(C)(C)O)c2n1 [Example 14, 3-(6-(2-aminopyrimidin-5-yl)-7-(3-hydroxy-3-methylbut-1-yn-1-yl)-5H-pyrrolo[2,3-b]pyrazin-2-yl)-2,4-dimethylphenol] | < 0.01
7 | Cc1ccc(O)c(C)c1-c1cnc2[nH]c(-n3cncn3)cc2c1C#N [Example 121, (S)-5-(3-hydroxy-2,6-dimethylphenyl)-2-(1H-1,2,4-triazol-1-yl)-1H-pyrrolo[2,3-b]pyridine-4-carbonitrile] | < 0.01
8 | Cc1ccc(O)c(C)c1-c1cnc2[nH]c(-c3cnc(OCC(O)CO)nc3)cc2c1C#N [Example 83, (5R)-2-(2-(2,3-dihydroxypropoxy)pyrimidin-5-yl)-5-(3-hydroxy-2,6-dimethylphenyl)-1H-pyrrolo[2,3-b]pyridine-4-carbonitrile] | < 0.01
9 | Cc1ccc(O)c(C)c1-c1cnc2[nH]c(-n3cc(N)cn3)cc2c1C#N [Example 133, (S)-2-(4-amino-1H-pyrazol-1-yl)-5-(3-hydroxy-2,6-dimethylphenyl)-1H-pyrrolo[2,3-b]pyridine-4-carbonitrile] | < 0.01
10 | Cc1ccc(O)c(C)c1-c1cnc2[nH]c(-c3ccc(N4CCN(C)CC4)nc3C)nc2c1C [Example 2, 2,4-dimethyl-3-(7-methyl-2-(2-methyl-6-(4-methylpiperazin-1-yl)pyridin-3-yl)-3H-imidazo[4,5-b]pyridin-6-yl)phenol] | 0.5 to 5
11 | Cc1ncc(-c2[nH]c3ncc(-c4c(C)ccc(O)c4C)c(C#N)c3c2Cl)cn1 (atropisomer, axis not shown) [Example 33, (S)-3-chloro-5-(3-hydroxy-2,6-dimethylphenyl)-2-(2-methylpyrimidin-5-yl)-1H-pyrrolo[2,3-b]pyridine-4-carbonitrile] | < 0.01
12 | Cc1ccc(O)c(C)c1-c1cnc2[nH]c(-c3cnc(N4CC(C(=O)O)C4)nc3)cc2c1C#N [Example 69, (R)-1-(5-(4-cyano-5-(3-hydroxy-2,6-dimethylphenyl)-1H-pyrrolo[2,3-b]pyridin-2-yl)pyrimidin-2-yl)azetidine-3-carboxylic acid] | < 0.01
13 | Cc1ccc(O)c(C)c1-c1cnc2[nH]c(-c3cnc(O)nc3)cc2c1C#N [Example 52, (R)-5-(3-hydroxy-2,6-dimethylphenyl)-2-(2-hydroxypyrimidin-5-yl)-1H-pyrrolo[2,3-b]pyridine-4-carbonitrile] | < 0.01
14 | Cc1ccc(O)c(C)c1-c1cnc2[nH]c(-c3cnc(N4CC[S@SP1](=O)(=O)CC4)nc3)c(Cl)c2c1C#N [Example 84, (R)-3-chloro-2-(2-(1,1-dioxidothiomorpholino)pyrimidin-5-yl)-5-(3-hydroxy-2,6-dimethylphenyl)-1H-pyrrolo[2,3-b]pyridine-4-carbonitrile] | < 0.01
15 | Cc1ccc(-c2cc3nc(-c4c(C)ccc(O)c4C)cnc3[nH]2)cn1 [Example 11, 2,4-dimethyl-3-(6-(6-methylpyridin-3-yl)-5H-pyrrolo[2,3-b]pyrazin-2-yl)phenol] | < 0.01
16 | Cc1ncc(-c2[nH]c3ncc(-c4c(C)ccc(O)c4C)cc3c2Cl)cn1 [Example 79, 3-(3-chloro-2-(2-methylpyrimidin-5-yl)-1H-pyrrolo[2,3-b]pyridin-5-yl)-2,4-dimethylphenol] | 0.01 to 0.05
17 | COc1cncc(-c2cc3cc(-c4c(C)ccc(O)c4C)cnc3[nH]2)c1 [Example 8, 3-(2-(5-methoxypyridin-3-yl)-1H-pyrrolo[2,3-b]pyridin-5-yl)-2,4-dimethylphenol] | 0.01 to 0.05
18 | Cc1ccc(O)c(C)c1-c1cnc2[nH]c(-c3cc[nH]n3)cc2c1C#N [Example 120, (S)-5-(3-hydroxy-2,6-dimethylphenyl)-2-(1H-pyrazol-3-yl)-1H-pyrrolo[2,3-b]pyridine-4-carbonitrile] | < 0.01
19 | Cc1ccc(O)c(C)c1-c1cnc2[nH]c(-c3cnc(N4CC(O)C(F)C4)nc3)cc2c1C#N [Example 100, (R)-2-(2-((3S,4S)-3-fluoro-4-hydroxypyrrolidin-1-yl)pyrimidin-5-yl)-5-(3-hydroxy-2,6-dimethylphenyl)-1H-pyrrolo[2,3-b]pyridine-4-carbonitrile] | < 0.01
20 | Cc1ccc(O)c(C)c1-c1cnc2[nH]c(-c3cnn(CCO)c3)cc2c1 [Example 81, 3-(2-(1-(2-hydroxyethyl)-1H-pyrazol-4-yl)-1H-pyrrolo[2,3-b]pyridin-5-yl)-2,4-dimethylphenol] | 0.05 to 0.5
21 | Cc1ccc(O)c(C)c1-c1cnc2[nH]c(-c3cnc(C(C)(C)O)nc3)cc2c1 [Example 88, 3-(2-(2-(2-hydroxypropan-2-yl)pyrimidin-5-yl)-1H-pyrrolo[2,3-b]pyridin-5-yl)-2,4-dimethylphenol] | 0.01 to 0.05
22 | Cc1ccc(O)c(C)c1-c1cnc2[nH]c(-c3cnc(OC4COC4)nc3)cc2c1C#N [Example 53, (S)-5-(3-hydroxy-2,6-dimethylphenyl)-2-(2-(oxetan-3-yloxy)pyrimidin-5-yl)-1H-pyrrolo[2,3-b]pyridine-4-carbonitrile] | < 0.01
23 | Cc1ccc(O)c(C)c1-c1cnc2[nH]c(-c3cnc(C4CC4)nc3)c(Cl)c2c1C#N [Example 57, (S)-3-chloro-2-(2-cyclopropylpyrimidin-5-yl)-5-(3-hydroxy-2,6-dimethylphenyl)-1H-pyrrolo[2,3-b]pyridine-4-carbonitrile] | < 0.01
24 | Cc1ccc(O)c(C)c1-c1cnc2[nH]c(-c3ccc4scnc4c3)cc2c1 [Example 22, 3-(2-(benzo[d]thiazol-5-yl)-1H-pyrrolo[2,3-b]pyridin-5-yl)-2,4-dimethylphenol] | 0.05 to 0.5
25 | CCc1c(O)ccc(C)c1-c1cnc2[nH]c(-c3cnc(C)nc3)cc2c1C#N [Example 91, (R)-5-(2-ethyl-3-hydroxy-6-methylphenyl)-2-(2-methylpyrimidin-5-yl)-1H-pyrrolo[2,3-b]pyridine-4-carbonitrile] | 0.01 to 0.05
